From patent US12624044B2, “SMARCA degraders and uses thereof” (Kymera Therapeutics, Inc., priority 2019, dated 2026)

Tests used:
Format in all cases: cell-based
[1] = biological target: T1, SMARCA2 (Homo sapiens, UniProt P51531); assay: MSD SMARCA2 degradation in A549 cell line; details: 24 h; for Dmax: A549, A549 cells; for DC50: A549 cells, read-out: SMARCA2 MSD A549 degradation 24 h: Average external-Abs DC50
Method in brief: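 SMARCA2 remaining was measured by MSD electrochemiluminescence on RIPA lysates (anti-SMARCA2 plus SULFO-TAG anti-rabbit). Prior exposure: 24 h of A549 cells to a 10-point, 3-fold dilution series topping at 1000 nM final; Dmax % given as graded codes.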

[2] = biological target: T2, SMARCA4 (Homo sapiens, UniProt P51532); assay: SMARCA4 Western blot MV4-11 degradation; details: 24 h; for Dmax: MV4-11, MV4-11 cells, read-out: SMARCA4 WB MV411 degradation 24 h: Average Dmax %; for DC50: MV4-11 cells, read-out: SMARCA4 WB MV411 degradation 24 h: Average external-Abs DC50
T2 construct: SMARCA2 and SMARCA4 protein degradation in MV4-11 cells; endogenous in cells; host or cells: MV4-11
T2 sequence (P51532 whole entry): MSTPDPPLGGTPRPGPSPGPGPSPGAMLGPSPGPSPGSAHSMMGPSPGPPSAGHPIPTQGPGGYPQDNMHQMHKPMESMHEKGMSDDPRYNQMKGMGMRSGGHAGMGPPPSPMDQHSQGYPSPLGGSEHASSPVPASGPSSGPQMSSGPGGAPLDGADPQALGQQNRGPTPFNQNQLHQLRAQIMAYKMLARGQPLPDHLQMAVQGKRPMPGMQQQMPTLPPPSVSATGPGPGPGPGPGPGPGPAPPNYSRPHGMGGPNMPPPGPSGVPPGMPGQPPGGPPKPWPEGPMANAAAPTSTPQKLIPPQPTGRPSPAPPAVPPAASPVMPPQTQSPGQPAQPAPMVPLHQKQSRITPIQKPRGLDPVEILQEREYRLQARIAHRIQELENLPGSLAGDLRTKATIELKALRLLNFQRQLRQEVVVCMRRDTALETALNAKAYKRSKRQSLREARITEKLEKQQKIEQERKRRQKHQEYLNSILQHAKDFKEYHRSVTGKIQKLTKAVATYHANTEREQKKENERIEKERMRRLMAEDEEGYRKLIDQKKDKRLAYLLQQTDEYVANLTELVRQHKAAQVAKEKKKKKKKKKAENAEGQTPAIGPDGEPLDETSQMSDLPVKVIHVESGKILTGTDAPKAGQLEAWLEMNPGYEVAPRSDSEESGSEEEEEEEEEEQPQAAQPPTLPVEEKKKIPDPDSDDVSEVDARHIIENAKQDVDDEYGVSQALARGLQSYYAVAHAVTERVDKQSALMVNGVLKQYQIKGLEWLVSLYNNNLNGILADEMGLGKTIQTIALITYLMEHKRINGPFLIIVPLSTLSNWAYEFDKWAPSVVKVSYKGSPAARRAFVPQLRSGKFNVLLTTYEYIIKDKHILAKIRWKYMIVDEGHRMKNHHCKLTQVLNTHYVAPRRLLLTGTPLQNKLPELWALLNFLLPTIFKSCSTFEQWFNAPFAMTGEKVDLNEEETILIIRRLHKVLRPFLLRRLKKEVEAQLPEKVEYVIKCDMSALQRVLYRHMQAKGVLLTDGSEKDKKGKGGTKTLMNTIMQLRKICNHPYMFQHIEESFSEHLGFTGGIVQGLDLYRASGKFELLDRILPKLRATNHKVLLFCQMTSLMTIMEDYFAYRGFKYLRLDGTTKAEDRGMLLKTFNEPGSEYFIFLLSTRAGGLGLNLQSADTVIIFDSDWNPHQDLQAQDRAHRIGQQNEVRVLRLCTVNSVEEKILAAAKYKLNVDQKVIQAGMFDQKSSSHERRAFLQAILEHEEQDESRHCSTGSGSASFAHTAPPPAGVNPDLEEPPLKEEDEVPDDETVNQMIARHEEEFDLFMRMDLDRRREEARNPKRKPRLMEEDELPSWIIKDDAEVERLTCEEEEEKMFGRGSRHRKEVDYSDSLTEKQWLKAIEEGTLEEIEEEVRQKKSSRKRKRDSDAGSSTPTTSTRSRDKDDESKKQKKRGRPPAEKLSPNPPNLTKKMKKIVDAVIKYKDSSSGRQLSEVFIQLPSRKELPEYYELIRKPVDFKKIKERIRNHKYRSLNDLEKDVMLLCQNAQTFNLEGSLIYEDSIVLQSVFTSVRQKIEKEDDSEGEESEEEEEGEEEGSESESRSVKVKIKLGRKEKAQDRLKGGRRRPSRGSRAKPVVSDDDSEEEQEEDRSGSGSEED
Description: Cells were seeded into 6-well plates (MV4-11: 4×10^6 cells/well/1 ml) and 1 ml of 2× compound solution was added into the well to make the final concentration and the plates were mixed well and incubated for 24 hours (No cytotoxicity was observed). The cell were collected with media and spun at 3000 rpm for 5 minutes. The supernatant was aspirated and the well and the cells were washed with cold PBS once and combined for centrifugation again; the supernatant aspirated again. 200 ul pre-chilled RIPAlysis buffer (Boston BioProducts BP-115D) with protease/phosphatase inhibitor (Roche 05892791001/Roche 04906837001) was directly added into the tube to lyze the cells for 20 minutes on ice. The cell lysate were collected into EP tubes and spun at 13000 rpm for 20 minutes and 72 ul supernatant was transferred to a fresh EP tube containing 18 ul of 5× loading buffer (Beyotime Bio P0015) to make the loading samples. The samples were heated to 100° C. for 10 minutes and cooled to RT and microcentrifuged. 20 ul of samples were loaded onto SDS-PAGE gel (Novex, WG1402BOX) and the gel was run at 80 V for 20 minutes and 120 V for 1.5 hours. The samples were electrotransfer to a NC membrane using wet-transfer method with 250 mA for 2.5 hours. The membrane was blocked with LICOR blocking buffer (LI-COR, 927-50000) for 1 hour. The membrane was washed three times with TBST (CST #9997S), 5 minutes each. Incubation was performed with primary antibody prepared in blocking buffer with 0.1% Tween-20 (Solarbio, P8220) at 4° C. overnight (Anti-SMARCA2/BRM antibody (ab15597) 1:500; Anti-BRG1 antibody [EPR3912] (ab108318) 1:1000; Rabbit anti-Baf180 antibody [EPR15860] (Abcam, ab196022) 1:1000; mouse anti-beta-Actin (8H10D10) (CST #3700) 1:10000). The membrane was washed three times with TBST, 5 minutes each. Incubation with secondary antibody was performed for 1 hour at RT (anti-rabbit IgG (Licor, 926-32211) 1:5000; anti-mouse IgG (LI-COR, 926-68070) 1:5000). The membrane was washed three times with TBST, 5 minutes each and lastly the LiCOR was read.
The letter codes for the percentage of SMARCA degradation after 24 hours (Dmax %) include: A (>90% degradation), B (>70-90% degradation), C (50-70% degradation), and D (<50% degradation).

[3] = biological target: T1, SMARCA2; assay: MSD SMARCA2 degradation in NCI-H1299 cell line (24 h); set-up: HC: NCI-H1299 cells treated with DMSO; host or cells: NCI-H1299; details: for Dmax: NCI-H1299, NCI-H1299 cells; for DC50: NCI-H1299 cells, read-out: SMARCA2 MSD H1299 degradation 24 h: External Abs-DC50
Method in brief: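 SMARCA2 measured by MSD electrochemiluminescence (primary 0.3 ug/ml, secondary 1 ug/ml) on lysates from NCI-H1299 cells exposed to compounds for 24 h across nine 3-fold dilutions. Signal scaled from A2780 cells (no SMARCA2) to DMSO-treated H1299 controls, and maximal degradation after 24 h reported in letter categories.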

T1 sequence (P51531 whole entry): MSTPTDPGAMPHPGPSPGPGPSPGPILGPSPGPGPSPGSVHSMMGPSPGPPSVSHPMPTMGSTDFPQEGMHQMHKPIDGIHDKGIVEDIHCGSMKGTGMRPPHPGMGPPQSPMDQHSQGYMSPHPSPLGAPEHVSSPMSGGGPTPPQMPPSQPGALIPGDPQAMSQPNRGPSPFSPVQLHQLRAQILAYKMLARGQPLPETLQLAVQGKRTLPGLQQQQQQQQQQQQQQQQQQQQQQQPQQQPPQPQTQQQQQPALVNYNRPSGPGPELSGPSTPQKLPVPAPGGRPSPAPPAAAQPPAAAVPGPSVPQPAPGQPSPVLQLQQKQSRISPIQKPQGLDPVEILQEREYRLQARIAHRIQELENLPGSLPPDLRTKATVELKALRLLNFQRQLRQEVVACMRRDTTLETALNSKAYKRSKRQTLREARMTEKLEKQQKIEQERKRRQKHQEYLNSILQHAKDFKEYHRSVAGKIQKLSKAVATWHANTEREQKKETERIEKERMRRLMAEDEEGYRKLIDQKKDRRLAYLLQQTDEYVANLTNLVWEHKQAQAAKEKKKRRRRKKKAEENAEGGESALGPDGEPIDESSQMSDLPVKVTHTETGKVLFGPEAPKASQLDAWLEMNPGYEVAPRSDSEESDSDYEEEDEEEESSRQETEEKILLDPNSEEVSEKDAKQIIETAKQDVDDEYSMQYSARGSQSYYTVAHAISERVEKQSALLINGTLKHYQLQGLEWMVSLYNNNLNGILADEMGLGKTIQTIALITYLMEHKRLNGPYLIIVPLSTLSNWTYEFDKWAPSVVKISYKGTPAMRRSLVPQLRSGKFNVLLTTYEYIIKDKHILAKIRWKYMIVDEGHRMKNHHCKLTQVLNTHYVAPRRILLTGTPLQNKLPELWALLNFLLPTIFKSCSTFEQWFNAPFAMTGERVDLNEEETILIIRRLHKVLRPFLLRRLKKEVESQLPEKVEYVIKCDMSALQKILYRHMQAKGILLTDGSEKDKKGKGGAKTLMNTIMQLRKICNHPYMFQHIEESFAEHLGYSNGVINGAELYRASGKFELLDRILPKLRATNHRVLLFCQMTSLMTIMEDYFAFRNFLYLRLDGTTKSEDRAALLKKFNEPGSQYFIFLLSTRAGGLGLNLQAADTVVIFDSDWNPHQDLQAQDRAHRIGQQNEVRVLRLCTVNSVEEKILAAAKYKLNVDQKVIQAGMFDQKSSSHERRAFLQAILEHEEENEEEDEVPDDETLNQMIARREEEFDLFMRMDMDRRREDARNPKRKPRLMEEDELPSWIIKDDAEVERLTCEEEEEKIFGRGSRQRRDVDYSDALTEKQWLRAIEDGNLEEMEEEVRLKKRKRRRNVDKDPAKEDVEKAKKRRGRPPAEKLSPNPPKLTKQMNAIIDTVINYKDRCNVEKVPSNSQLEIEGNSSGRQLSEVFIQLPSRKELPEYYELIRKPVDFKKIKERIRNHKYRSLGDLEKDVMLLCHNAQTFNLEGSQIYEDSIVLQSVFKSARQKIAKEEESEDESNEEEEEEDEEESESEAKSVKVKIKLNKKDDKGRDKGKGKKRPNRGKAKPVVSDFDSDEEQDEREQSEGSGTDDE

Dmax [2] [%]	DC50 [2] [nM]	Dmax [3] [%]	DC50 [3] [nM]	Compound	Dmax [1] [%]	DC50 [1] [nM]
< 50	> 1000			Cc1ncsc1-c1ccc(CNC(=O)[C@@H]2C[C@@H](O)CN2C(=O)[C@@H](NC(=O)CCN2CCC[C@H](Cn3cc(-c4cc(-c5ccccc5O)nnc4N)cn3)C2)C(C)(C)C)cc1 [I-478]	< 50	> 1000
> 90	100 to 500			Cc1ncsc1-c1ccc(CNC(=O)[C@@H]2C[C@@H](O)CN2C(=O)[C@@H](NC(=O)C2CCC(CCCCCN3CCC(Cn4cc(-c5cc(-c6ccccc6O)nnc5N)cn4)CC3)CC2)C(C)(C)C)cc1 (stereo partly shown) [I-504]	> 90	100 to 500
< 50	> 1000			Cc1ncsc1-c1ccc(CNC(=O)[C@@H]2C[C@@H](O)CN2C(=O)[C@@H](NC(=O)[C@H]2C[C@H](N3CCC(n4cc(-c5cc(-c6ccccc6O)nnc5N)cn4)CC3)C2)C(C)(C)C)cc1 [I-359]	< 50	> 1000
> 90	< 100			Cc1ncsc1-c1ccc(CNC(=O)[C@@H]2C[C@@H](O)CN2C(=O)[C@@H](NC(=O)C2CC3(C2)CC(N2CCC(n4cc(-c5cc(-c6ccccc6O)nnc5N)cn4)CC2)C3)C(C)(C)C)cc1 (stereo partly shown) [I-329]	> 90	100 to 500
> 90	< 100			CC(C)(C)[C@H](NC(=O)C1(F)CC1)C(=O)N1C[C@H](O)C[C@H]1C(=O)NCc1ccc(-c2scnc2-c2ccc3cn[nH]c3c2)cc1OCCc1ccc(CN2CCN(c3cc(-c4ccccc4O)nnc3N)CC2)cc1 [I-447, (2S,4R)—N-(4-(4-(1H-indazol-6-yl)thiazol-5-yl)-2-(4-((4-(3-amino-6-(2-hydroxyphenyl)pyridazin-4-yl)piperazin-1-yl)methyl)phenethoxy)benzyl)-1-((S)-2-(1-fluorocyclopropanecarboxamido)-3,3-dimethylbutanoyl)-4-hydroxypyrrolidine-2-carboxamide]	> 90	100 to 500
< 50	100 to 500	< 50	> 1000	Cc1ncsc1-c1ccc(CNC(=O)[C@@H]2C[C@@H](O)CN2C(=O)[C@@H](NC(=O)CN2CCCC(n3cc(-c4cc(-c5ccccc5O)nnc4N)cn3)C2)C(C)(C)C)cc1 (stereo partly shown) [I-452]		
< 50	100 to 500	< 50	> 1000	Cc1ncsc1-c1ccc(CNC(=O)[C@@H]2C[C@@H](O)CN2C(=O)[C@@H](NC(=O)CCCCN2CCC(Cn3cc(-c4cc(-c5ccccc5O)nnc4N)cn3)CC2)C(C)(C)C)cc1 [I-468]		
< 50	100 to 500	< 50	100 to 500	Cc1ncsc1-c1ccc(CNC(=O)[C@@H]2C[C@@H](O)CN2C(=O)[C@@H](NC(=O)CN2CCN(Cc3ccc(-c4cc(-c5ccccc5O)nnc4N)cc3)CC2)C(C)(C)C)cc1 [I-473]		
70 to 90	100 to 500	> 90	100 to 500	Cc1ncsc1-c1ccc(CNC(=O)[C@@H]2C[C@@H](O)CN2C(=O)[C@@H](NC(=O)CN2CCC(c3cnc(N4CCN(c5cc(-c6ccccc6O)nnc5N)CC4)nc3)CC2)C(C)(C)C)cc1 [I-451]		
< 50	100 to 500	< 50	> 1000	Cc1ncsc1-c1ccc(CNC(=O)[C@@H]2C[C@@H](O)CN2C(=O)[C@@H](NC(=O)CCCCCN2CCCC(n3cc(-c4cc(-c5ccccc5O)nnc4N)cn3)C2)C(C)(C)C)cc1 (stereo partly shown) [I-456]		
> 90	< 100	> 90	< 100	Cn1c(=O)n(C2CCC(=O)NC2=O)c2ccc(CCCN3CCC(c4cnc(N5CCN(c6cc(-c7ccccc7O)nnc6N)CC5)nc4)CC3)cc21 (stereo not shown) [I-288]		
< 50	100 to 500	< 50	100 to 500	Cn1c(=O)n(C2CCC(=O)NC2=O)c2ccc(CCCCCCCCCNC(=O)c3cccc(C#Cc4cc(NC(=O)Nc5ccnc(Cl)c5)ccn4)c3)cc21 (stereo not shown) [I-301, 3-[2-[4-[(2-chloro-4-pyridyl)carbamoylamino]-2-pyridyl]ethynyl]-N-[9-[1-(2,6-dioxo-3-piperidyl)-3-methyl-2-oxo-benzimidazol-5-yl]nonyl]benzamide]		

Compound	Dmax [2] [%]	DC50 [2] [nM]	Dmax [3] [%]	DC50 [3] [nM]	Dmax [1] [%]	DC50 [1] [nM]
Cc1ncsc1-c1ccc(CNC(=O)[C@@H]2C[C@@H](O)CN2C(=O)[C@@H](NC(=O)CC2CCC(N3CCC(c4cnc(N5C6CCC5CN(c5cc(-c7ccccc7O)nnc5N)C6)nc4)CC3)CC2)C(C)(C)C)cc1 (stereo partly shown) [I-511]	> 90	< 100			> 90	100 to 500
Cc1ncsc1-c1ccc(CNC(=O)[C@@H]2C[C@@H](O)CN2C(=O)[C@@H](NC(=O)COCC#Cc2cnc(N3C4CCC3CN(c3cc(-c5ccccc5O)nnc3N)C4)nc2)C(C)(C)C)cc1 [I-340]	> 90	< 100			> 90	100 to 500
Cc1ncsc1-c1ccc(CNC(=O)[C@@H]2C[C@@H](O)CN2C(=O)[C@@H](NC(=O)C(=O)N2CCC(c3cnc(N4C5CCC4CN(c4cc(-c6ccccc6O)nnc4N)C5)nc3)CC2)C(C)(C)C)cc1 [I-344]	50 to 70	> 1000			< 50	> 1000
Cc1ncsc1-c1ccc(CNC(=O)[C@@H]2C[C@@H](O)CN2C(=O)[C@@H](NC(=O)N2CCN(Cc3cnc(N4C5CCC4CN(c4cc(-c6ccccc6O)nnc4N)C5)nc3)CC2)C(C)(C)C)cc1 [I-339]	> 90	< 100			70 to 90	100 to 500
Cc1ncsc1-c1ccc(CNC(=O)[C@@H]2C[C@@H](O)CN2C(=O)[C@@H](NC(=O)CCCC#Cc2cnc(N3C4CCC3CN(c3cc(-c5ccccc5O)nnc3N)C4)nc2)C(C)(C)C)cc1 [I-341]	> 90	< 100			> 90	100 to 500
Nc1nnc(-c2ccccc2O)cc1N1CC2CCC(C1)N2c1ncc(C2CCN(CCCNC(=O)COc3ccc4c(c3)CCCN4C(=O)CCl)CC2)cn1 [I-523, N-[3-[4-[2-[3-[3-amino-6-(2-hydroxyphenyl)pyridazin-4-yl]-3,8-diazabicyclo[3.2.1]octan-8-yl]pyrimidin-5-yl]-1-piperidyl]propyl]-2-[[1-(2-chloroacetyl)-3,4-dihydro-2H-quinolin-6-yl]oxy]acetamide]	> 90	> 1000			< 50	> 1000
Cn1c(=O)n(C2CCC(=O)NC2=O)c2cccc(C#CCN3CCCC(c4cnc(N5C6CCC5CN(c5cc(-c7ccccc7O)nnc5N)C6)nc4)C3)c21 (stereo not shown) [I-300]	70 to 90	< 100	> 90	< 100		
Cn1c(=O)n(C2CCC(=O)NC2=O)c2ccc(CCC(=O)N3CCC(c4cnc(N5C6CCC5CN(c5cc(-c7ccccc7O)nnc5N)C6)nc4)CC3)cc21 (stereo not shown) [I-286]	> 90	< 100	70 to 90	100 to 500		
Cn1c(=O)n(C2CCC(=O)NC2=O)c2ccc(CC(=O)N3CCN(Cc4cnc(N5C6CCC5CN(c5cc(-c7ccccc7O)nnc5N)C6)nc4)CC3)cc21 (stereo not shown) [I-294]	> 90	< 100	> 90	< 100		
CN(CCCc1cnc(N2C3CCC2CN(c2cc(-c4ccccc4O)nnc2N)C3)nc1)Cc1cccc2c1n(C)c(=O)n2C1CCC(=O)NC1=O (stereo not shown) [I-299]	> 90	< 100	> 90	< 100		
